In the assay the target is T1, human GR (Homo sapiens, UniProt P04150).
T1 construct: naturally expresses the human GR; endogenous in cells
T1 sequence (P04150 1-777): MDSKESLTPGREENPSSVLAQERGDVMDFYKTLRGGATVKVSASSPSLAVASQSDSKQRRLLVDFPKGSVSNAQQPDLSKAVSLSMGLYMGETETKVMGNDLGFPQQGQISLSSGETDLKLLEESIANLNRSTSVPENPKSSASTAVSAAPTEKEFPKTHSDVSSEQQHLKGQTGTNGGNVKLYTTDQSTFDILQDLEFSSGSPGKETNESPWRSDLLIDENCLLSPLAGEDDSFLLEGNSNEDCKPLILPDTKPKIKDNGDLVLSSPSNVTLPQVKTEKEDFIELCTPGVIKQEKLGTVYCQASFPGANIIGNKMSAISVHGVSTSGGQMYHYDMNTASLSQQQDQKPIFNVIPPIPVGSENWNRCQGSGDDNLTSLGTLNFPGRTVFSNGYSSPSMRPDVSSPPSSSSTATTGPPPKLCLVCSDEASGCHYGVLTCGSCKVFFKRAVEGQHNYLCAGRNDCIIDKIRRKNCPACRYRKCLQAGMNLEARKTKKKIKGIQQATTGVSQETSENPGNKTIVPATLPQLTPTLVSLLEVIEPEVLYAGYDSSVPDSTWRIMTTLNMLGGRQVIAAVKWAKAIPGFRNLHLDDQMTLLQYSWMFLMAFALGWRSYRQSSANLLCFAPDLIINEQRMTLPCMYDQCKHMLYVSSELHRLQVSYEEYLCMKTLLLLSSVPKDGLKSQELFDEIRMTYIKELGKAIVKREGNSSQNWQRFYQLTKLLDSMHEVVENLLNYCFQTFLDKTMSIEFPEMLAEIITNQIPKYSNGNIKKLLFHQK
The assay is described as follows: Trans-activation modulation of glucocorticoid receptor (GRAMMER), MMTV-LUC reporter in A549 cells. The class given is cell-based. To be noted: for Transactivation A549 Cells Grammer Emax (%) / Emax: Emax relative to the activity obtained with 300 nM dexamethasone; for Transactivation A549 Cells Grammer Emax (%) / pEC50: A549 cells; for pEC50: IP = inflection point, read-out: Transactivation A549 Cells Grammer IP; for Emax: A549, A549 cells, read-out: Transactivation A549 Cells Grammer Emax (%). From the text:
Trans-Activation Modulation of Glucocorticoid Receptor (GRAMMER)
This assay assesses the ability of test compounds to control transcription from the MMTV-LUC reporter gene in lung adenocarcinoma A549 cells or HeLa cells, a human […] cell line that naturally expresses the human GR. The assay measures induction of a modified MMTV LTR/promoter linked to the LUC reporter gene.
The routine transient assay consists of plating 7,000-25,000 cells/well of a white, clear-bottom 96-well plate. Alternatively, 384-well plates can be used at a cell concentration of 10,000/well. The media that the cells are plated in is “exponential growth medium” which consists of phenol red-free RPMI1640 containing 10% FBS, 4 mM L-glutamine, 20 mM HEPES, 10 ug/mL human insulin, and 20 ug/mL gentamicin. Incubator conditions are 37° C. and 5% C02. The transfection is done in batch mode. The cells are trypsinized and counted to the right cell number in the proper amount of fresh media. It is then gently mixed with the FuGene6/DNA 25 mix and plated onto the 96 or 384-well plate, all the wells receive 100 uL or 40 uL, respectively, of medium+lipid/DNA complex then incubated 37° C. overnight. The transfection cocktail consists of serum-free OptiMEM, FuGene6 reagent and DNA. The manufacturer's (Roche Biochemical) protocol for cocktail setup is as follows: The lipid to DNA ratio is approximately 2.5:1 and the incubation time is 20 min at room temperature. Sixteen to 24 h after transfection, the cells are treated with dexamethasone to a final concentration of 10 nM as well as the compound of interest, such that final DMSO (vehicle) concentration is equal to or less than 1%. Each plate also contains samples that are treated with 10 nM dexamethasone alone, which is used as the 100% activity control. The cells are exposed to the compounds for 24 h. After 24 h, the cells are lysed by a Promega cell culture lysis buffer for approximately 30 min and then the luciferase activity in the extracts is assayed in the 96-well format luminometer. In 384 well format, Steady-Glo (Promega) or Steady-Lite (PerkinElmer) can be used by adding an equal volume of reagent to the media present in each well. Activity induced by 10 nM dexamethasone alone is set at 100% activity. Antagonist activity is calculated by determining the decrease in dexamethasone-induced activity in response to compound treatment relative to samples that were treated with dexamethasone alone. Results are expressed as % inhibition of 10 nM dexamethasone activity or as fold of 10 nM dexamethasone activity. This transactivation assay can be performed in an agonist and antagonist mode to identify these different activities.
Activity of test compounds is calculated as the Emax relative to the activity obtained with 300 nM dexamethasone. […] The exemplified tissue selective glucocorticoid receptor modulators of the present invention display agonist activity in this assay of greater than 5% and less than 100%, and maximal transactivation activity less then maximal transrepression activity. The action of compounds is also tested in an antagonist mode (Anti-GRAMMER) in which the cells are treated with medium containing an agonist such as 10 nM DEX and the ability of agents to inhibit the activation by an agonist is measured.

SMILES strings stand for the structures. pEC50: −log10 of the molar value.

For `CC[C@]12Cc3cnn(-c4ccc(F)cc4)c3C=C1CC[C@@]2(O)CC(O)c1ncccc1F` (stereo partly drawn) [Example 77, (4aS,5R)-4a-Ethyl-1-(4-fluorophenyl)-5-[2-(3-fluoropyridin-2-yl)-2-hydroxyethyl]-1,4,4a,5,6,7-hexahydrocyclopenta[f]indazol-5-ol], the “Transactivation A549 Cells Grammer Emax (%)” value was 23% and the pEC50 is 6.94.

The term Emax denotes the size of the effect at its maximum, as opposed to the concentration needed. Turning to `O=C(NC1(CO)CC1)c1ccccc1CC[C@]1(O)CCC2=Cc3c(cnn3-c3ccc(F)cc3)C[C@@]21C1CC1` [Example 46, 2-{2-[(4aR,5R)-4a-Cyclopropyl-1-(4-fluorophenyl)-5-hydroxy-1,4,4a,5,6,7-hexahydrocyclopenta[f]indazol-5-yl]ethyl}-N-[1-(hydroxymethyl)cyclopropyl]benzamide], the Emax was 34% and the pEC50 was 7.70.

As for `NC(=O)c1ccccc1CC[C@]1(O)CCC2=Cc3c(cnn3-c3cccc(F)c3)C[C@@]21C1CC1` [Example 7, 2-{2-[(4aR,5R)-4a-Cyclopropyl-1-(3-fluorophenyl)-5-hydroxy-1,4,4a,5,6,7-hexahydrocyclopenta[f]indazol-5-yl]ethyl}benzamide], the Emax worked out at 7% and the pEC50 was 6.84.

Regarding `OC(C[C@]1(O)CCC2=Cc3c(cnn3-c3ccc(F)cc3)C[C@@]21C1CC1)c1ccccn1` (stereo partly drawn) [Example 78, (4aR,5R)-4a-Cyclopropyl-1-(4-fluorophenyl)-5-[2-hydroxy-2-(pyridin-2-yl)ethyl]-1,4,4a,5,6,7-hexahydrocyclopenta[f]indazol-5-ol], the Emax turned out to be 13% and the pEC50 is 7.18.

Regarding `CC[C@]12Cc3cnn(-c4ccc(F)cc4)c3C=C1CC[C@@]2(O)CCc1ncc(F)cc1C(N)=O` [Example 53, 2-{2-[(4aS,5R)-4a-Ethyl-1-(4-fluorophenyl)-5-hydroxy-1,4,4a,5,6,7-hexahydrocyclopenta[f]indazol-5-yl]ethyl}-5-fluoropyridine-3-carboxamide], the Emax was 49% and the pEC50 was 7.11.

Turning to `CC[C@]12Cc3cnn(-c4ccc(F)cc4)c3C=C1CC[C@@]2(O)CC(O)c1cc(C#N)ccn1` (stereo partly drawn) [Example 72, 2-{2-[(4aS,5R)-4a-Ethyl-1-(4-fluorophenyl)-5-hydroxy-1,4,4a,5,6,7-hexahydrocyclopenta[f]indazol-5-yl]-1-hydroxyethyl}pyridine-4-carbonitrile], the Emax turned out to be 13% and the pEC50 is 6.73.

With `CC[C@]12Cc3cnn(-c4ccc(F)cc4)c3C=C1CC[C@@]2(O)CCc1cc(F)ccn1` [Example 18, (4aS,5R)-4a-Ethyl-1-(4-fluorophenyl)-5-[2-(4-fluoropyridin-2-yl)ethyl]-1,4,4a,5,6,7-hexahydrocyclopenta[f]indazol-5-ol], the Emax was found to be 32% and the pEC50 was 7.28.

Consider `NC(=O)C(O)c1ccccc1CC[C@]1(O)CCC2=Cc3c(cnn3-c3ccc(F)cc3)C[C@@]21C1CC1` (single isomer, unassigned) [Example 3b], for which the “Transactivation A549 Cells Grammer Emax (%)” value is reported as 19% and the pEC50 was 6.97.

`CC[C@]12Cc3cnn(-c4ccc(F)cc4)c3C=C1CC[C@@]2(O)CC1OC(=O)c2ccccc21` (stereo partly drawn) [Example 71, 3-{[(4aS,5R)-4a-Ethyl-1-(4-fluorophenyl)-5-hydroxy-1,4,4a,5,6,7-hexahydrocyclopenta[f]indazol-5-yl]methyl}-2-benzofuran-1(3H)-one]: the Emax turned out to be 30% and the pEC50 is 7.11.

Take `CC[C@]12Cc3cnn(-c4ccccc4)c3C=C1CC[C@@]2(O)CC(O)c1cc(C#N)ccn1` (stereo partly drawn) [Example 75, 2-{2-[(4aS,5R)-4a-Ethyl-5-hydroxy-1-phenyl-1,4,4a,5,6,7-hexahydrocyclopenta[f]indazol-5-yl]-1-hydroxyethyl}pyridine-4-carbonitrile]: the Emax came out at 10% and the pEC50 was 6.97.

With `N#Cc1cccnc1CC[C@]1(O)CCC2=Cc3c(cnn3-c3ccc(F)cc3)C[C@@]21C1CC1` [Example 31, 2-{2-[(4aR,5R)-4a-Cyclopropyl-1-(4-fluorophenyl)-5-hydroxy-1,4,4a,5,6,7-hexahydrocyclopenta[f]indazol-5-yl]ethyl}pyridine-3-carbonitrile], the Emax is 24% and the pEC50 is 8.05.

Turning to `O=C(NCCO)c1ccccc1CC[C@]1(O)CCC2=Cc3c(cnn3-c3ccc(F)cc3)C[C@@]21C1CC1` [Example 50, 2-{2-[(4aR,5R)-4a-Cyclopropyl-1-(4-fluorophenyl)-5-hydroxy-1,4,4a,5,6,7-hexahydrocyclopenta[f]indazol-5-yl]ethyl}-N-(2-hydroxyethyl)benzamide], the Emax turned out to be 57% and the pEC50 is 7.92.

Turning to `CC(C)(CO)NC(=O)c1cc(F)cnc1CC[C@]1(O)CCC2=Cc3c(cnn3-c3ccc(F)cc3)C[C@@]21C1CC1` [Example 48, 2-{2-[(4aR,5R)-4a-Cyclopropyl-1-(4-fluorophenyl)-5-hydroxy-1,4,4a,5,6,7-hexahydrocyclopenta[f]indazol-5-yl]ethyl}-5-fluoro-N-(1-hydroxy-2-methylpropan-2-yl)pyridine-3-carboxamide], the Emax stood at 50% and the pEC50 is 7.59.

As for `CC[C@]12Cc3cnn(-c4ccc(F)cc4)c3C=C1CC[C@@]2(O)CCc1cccc(F)c1CC(N)=O` [Example 60, 2-(2-{2-[(4aS,5R)-4a-Ethyl-1-(4-fluorophenyl)-5-hydroxy-1,4,4a,5,6,7-hexahydrocyclopenta[f]indazol-5-yl]ethyl}-6-fluorophenyl)acetamide], the maximal effect (Emax) amounted to 39% and the pEC50 is 7.42.

In the case of `NC(=O)CNC(=O)c1cc(F)cnc1CC[C@]1(O)CCC2=Cc3c(cnn3-c3ccc(F)cc3)C[C@@]21C1CC1` [Example 44, N-(2-Amino-2-oxoethyl)-2-{2-[(4aR,5R)-4a-cyclopropyl-1-(4-fluorophenyl)-5-hydroxy-1,4,4a,5,6,7-hexahydrocyclopenta[f]indazol-5-yl]ethyl}-5-fluoropyridine-3-carboxamide], the Emax is 39% and the pEC50 is 6.81.

As for `CC[C@]12Cc3cnn(-c4ccccc4)c3C=C1CC[C@@]2(O)CCc1ccc(F)cc1C(N)=O` [Example 6], the Emax was determined as 26% and the pEC50 is 6.75.

For the compound `O=S(=O)(c1ccccc1CC[C@]1(O)CCC2=Cc3c(cnn3-c3ccc(F)cc3)C[C@@]21C1CC1)C1CC1` [Example 63, (4aR,5R)-4a-Cyclopropyl-5-{2-[2-(cyclopropylsulfonyl)phenyl]ethyl}-1-(4-fluorophenyl)-1,4,4a,5,6,7-hexahydrocyclopenta[f]indazol-5-ol], the Emax stood at 5% and the pEC50 is 7.38.

The values are drawn from patent US20120214847A1, “2-[1-PHENYL-5-HYDROXY-4a-SUBSTITUTED-HEXAHYDROCYCLOPENTA[F]INDAZOL-5-YL]ETHYL PHENYL DERIVATIVES AS GLUCOCORTICOID RECEPTOR LIGANDS” (Merck Sharp & Dohme Corp., priority 2009, published 2012).
